From patent EP0548798A1, “Antiviral agent” (SANWA KAGAKU KENKYUSHO CO., LTD., priority 1991, dated 1993)
In brackets after ≈: the same amount, converted by molar mass. Like-named read-outs stand apart in the source and are kept apart here.

Assays:
[1] = system: MT-4 cells; test: Minimum cytotoxic concentration in MT-4 cells; format: cell-based, human
Experimental: MT-4 cells (lymphoma derived from human T cell leukemia) in 96-well plate were infected with […] in the presence of various concentrations of test compounds. After incubation, inhibitory effect of HIV-induced CPE by the test compounds and cytotoxicity were microscopically observed. […] TABLE 6 In Table 6, parentheses indicate the minimum cytotoxic concentration of test compounds.

[2] = system: herpes simplex virus type 1 (Miyama strain); test: Antiviral activity against HSV-1 in vitro, inhibition of virus-induced CPE in GMK cells (Test Example 1); format: cell-based, HSV-1 (Miyama strain); conditions: Human alphaherpesvirus 1, GMK cells, 1% fetal bovine serum, read-out: Antiviral Activity (ΔTCID₅₀(log₁₀))
Experimental: (§1) Confluent GMK cells (derived from green monkey kidney) in 96-well plates were infected with HSV-1 (Miyama strain) in the presence of various concentrations of test compounds. […] The virus titer (TCID₅₀) was determined from CPE of virus infected culture. Antivirus effects of test compounds were calculated from TCID₅₀ values of test compound treated and control cultures and represented by ΔTCID₅₀(log₁₀). Test compounds were dissolved in MEM medium, ethanol or DMSO to 10 mg/ml, and diluted with MEM medium supplemented with 1% fetal bovineserum.

[3] = system: HSV-1 (Miyama strain); test: Anti HSV-1 activity in vivo, intraperitoneally infected mice; design: species or system Male BALB/c mice; conditions: 322 PFU (10LD₅₀) HSV-1
Experimental: Male BALB/c mice (5 weeks of age) were intraperitoneally infected with 322 PFU (plaque forming unit, 10LD₅₀) of HSV-1 (Miyama strain). Twenty one days later, survival ratio and mean survival days were evaluated. Test compounds were dispersed in 5% arabic gum/physiological saline, and intraperitoneally administered at 10 mg and 20 mg/kg. Treatment began just after virus inoculation and continued for 5 days.

[4] = system: HIV; test: Inhibition of HIV-induced cytopathogenicity in MT-4 cells; format: cell-based
Experimental: MT-4 cells (lymphoma derived from human T cell leukemia) in 96-well plate were infected with […] in the presence of various concentrations of test compounds. After incubation, inhibitory effect of HIV-induced CPE by the test compounds and cytotoxicity were microscopically observed. […]
Further, since the compounds of the present invention have a chemical structure different from the conventional antiviral substances, it is useful for the prevention or treatment of the infectious diseases caused by viruses resistant to the conventional antiviral substances.

[5] = system: GMK cells; test: Cytotoxicity observed microscopically in GMK cells (Test Example 1); format: cell-based, green monkey; conditions: GMK cells, in parentheses
Experimental: as §1
In Table 1, parentheses indicate the cytotoxicity of these compounds. (-) and (±) indicate no cytotoxicity and slight cytotoxicity, respectively.

[6] = system: herpes simplex virus type 1 (Miyama strain); test: Antiviral activity against HSV-1 in vitro, inhibition of virus-induced CPE in GMK cells (Test Example 2); format: cell-based, HSV-1 (Miyama strain); conditions: 0.5% fetal bovine serum
Experimental: (§2) Confluent GMK cells (derived from green monkey kidney) in 96-well plates were infected with HSV-1 (Miyama strain) in the presence of various concentrations of test compounds. After incubation, virus-induced cytopathic effect (CPE), inhibitory effect of CPE by the test compound and cytotoxicity were microscopically observed. The virus titer (TCID₅₀) was determined from CPE of virus infected culture. Ancivirus effects of test compounds were calculated from TCID₅₀ values of test compound treated and control cultures and represented by ΔTCID₅₀(log₁₀). Test compounds were dissolved in MEM medium, ethanol or DMSO to 10 mg/ml, and diluted with MEM medium supplemented with 0.5% fetal bovine serum.

[7] = system: GMK cells; test: Cytotoxicity observed microscopically in GMK cells (Test Example 2); format: cell-based, green monkey; design: key: -: no cytotoxicity; ±: slight cytotoxicity; +: cytotoxicity with observable antiviral effect; conditions: in parentheses
Experimental: as §2
In Table 4, parentheses indicate the cytotoxicity of these compounds. (-), (±) and (+) indicate no cytotoxicity, slight cytotoxicity and cytotoxicity with observable antiviral effect, respectively.

[8] = 10 mg/kg intraperitoneally for 5 days
[9] = 20 mg/kg intraperitoneally for 5 days
[10] = Human immunodeficiency virus 1, MT-4 cells, minimum inhibitory concentration, read-out: Anti-HIV Activity (MIC, µg/ml)
[11] = Human immunodeficiency virus 1, read-out: Anti-HIV Activity (MIC, µg/ml)

CCCCC/C=C\C/C=C\CCCCCCCC(=O)N1CCN(c2ccccc2Cl)CC1 [Compound of Example 8, 1-(2-Chlorophenyl)-4-[(Z,Z)-9,12-octadecadienoyl]piperazine]
minimum cytotoxic concentration ([1]; MT-4 cells, in parentheses): > 125 µg/mL
log reduction at 10 µg/mL [2]: 2
Mean Survival Days [3, 8]: 13.7 ± 1.6 days
Survival Ratio at 21 days (%) [3, 8]: 20%
Mean Survival Days [3, 9]: 16.4 ± 2.0 days
Survival Ratio at 21 days (%) [3, 9]: 40%
MIC [4, 10]: 16 µg/mL (≈ 34.8 µM)
cytotoxicity ([5]; 10 µg/ml): -

CCCCCCCC(=O)N1CCN(c2ccccc2Cl)CC1 [Compound of Example 9, 1-(2-Chlorophenyl)-4-octanoylpiperazine]
minimum cytotoxic concentration ([1]; MT-4 cells, in parentheses): > 250 µg/mL
log reduction at 5 µg/mL ([2]; 5 µg/ml): 0.83
log reduction at 10 µg/mL [2]: > 3
Mean Survival Days [3, 8]: 14.2 ± 1.5 days
Survival Ratio at 21 days (%) [3, 8]: 20%
Mean Survival Days [3, 9]: 18.7 ± 1.8 days
Survival Ratio at 21 days (%) [3, 9]: 60%
MIC [4, 10]: > 125 µg/mL
cytotoxicity ([5]; 5 µg/ml): -
cytotoxicity ([5]; 10 µg/ml): ±

COc1cc2c(=O)n(N3CCN(c4ccccc4C(F)(F)F)CC3)ncc2c(OC)c1OC [Compound of Example 19, 2-[4-(2-Trifluoromethylphenyl)-1-piperazinyl]-5,6,7-trimethoxy-1(2H)-phthalazinone]
minimum cytotoxic concentration ([1]; MT-4 cells, in parentheses): > 125 µg/mL
Antiviral Activity (ΔTCID₅₀(log₁₀)) ([6]; 5 µg/ml): 1.17 log₁₀
Antiviral Activity (ΔTCID₅₀(log₁₀)) ([6]; 10 µg/ml): > 3.00 log₁₀
cytotoxicity ([7]; 5 µg/ml): -
cytotoxicity ([7]; 10 µg/ml): +
MIC [4, 10]: 31 µg/mL (≈ 66.7 µM)

CC[C@@]12C=C(C(=O)OCCN3CCN(c4ccccc4OC)CC3)n3c4c(c5ccccc53)CCN(CCC1)[C@H]42 [Compound of Example 27, (3α,16α)-Eburunamenine-14-carboxylic acid 2-[4-(2-methoxyphenyl)piperazine-1-yl]ethyl ester]
minimum cytotoxic concentration [1]: 63 µg/mL
Antiviral Activity (ΔTCID₅₀(log₁₀)) ([6]; 5 µg/ml): 1.00 log₁₀
Antiviral Activity (ΔTCID₅₀(log₁₀)) ([6]; 10 µg/ml): 3.00 log₁₀
cytotoxicity ([7]; 5 µg/ml): -
cytotoxicity ([7]; 10 µg/ml): ±
MIC [4, 11]: 8 µg/mL (≈ 14.8 µM)

CC[C@@]12C=C(C(=O)OCCN3CCN(c4ccccc4Cl)CC3)n3c4c(c5ccccc53)CCN(CCC1)[C@H]42 [Compound of Example 28, (3α,16α)-Eburunamenine-14-carboxylic acid 2-[4-(2-chlorophenyl)piperazine-1-yl]ethyl ester]
minimum cytotoxic concentration [1]: 63 µg/mL
Antiviral Activity (ΔTCID₅₀(log₁₀)) ([6]; 5 µg/ml): 2.00 log₁₀
Antiviral Activity (ΔTCID₅₀(log₁₀)) ([6]; 10 µg/ml): 3.00 log₁₀
cytotoxicity ([7]; 5 µg/ml): -
cytotoxicity ([7]; 10 µg/ml): +
MIC [4, 11]: 4 µg/mL (≈ 7.34 µM)
